# In patent publication US8591761B2, “Apparatus including hydrofluoroether with high temperature stability and uses thereof” (3M Innovative Properties Company, priority 2009, dated 2013):
# Read-outs that look alike come from different tables or passages of the source.
# Assays:
# [1] = type: physicochemical; details: for stability of the HFE to temperature (conclusion from ketone concentration): heated at 150° C. for 8 days
# Experimental: Stability testing was carried out by heating of the various samples in clean, PYREX glass round bottom flasks at the temperatures noted below.
# The stability of H(CF2CF2)3CH2OCF2CFHCF3 was tested by placing a portion of the ether, prepared essentially as described in Example 1 and treated with both HF and potassium permanganate, (˜100 g) into a new PYREX glass flask containing a reflux condenser under nitrogen and heating to 150° C. for 36 days. Samples of the liquid were taken at 7, 14, 26 and 36 day time intervals and the composition was monitored by GC/MS for breakdown products of the parent molecule. […] The compositional analysis (GC/MS and GC-FID) verified this conclusion. After this heating period, the sample was then heated to 180° C. for an additional 14 days.
# The stability of H(CF2CF2)3CH2OCF2CFHOCF3 was tested by placing a portion of the ether, prepared as described above, (75 g) into a flask containing a reflux condenser under nitrogen and heating while stirring magnetically to 175° C. for 15 days. Samples of the liquid were taken at 1, 2, 3, 4, 7, 8, 9, 11 and 15 day time intervals and analyzed by gas chromatography. In addition, the starting material and the material at the end of the heating period were analyzed by GC/MS for breakdown products of the parent molecule.
# Stability testing in glass was carried out by placing about 100 g of the ether in a 500 ml, round bottom flask equipped with a water condenser and heated with magnetic stirring to 150° C. for seven days. Samples of the liquid were taken on days 1, 2, 3, 4, and 7 and analyzed by gas chromatography, HF gas probe, and pH paper. After one day, the pH had dropped from the initial value neutral value of 7 to 5 and remained at that level the remainder of the test.
# (§1) 50 grams of the hydrofluoroether was charged to a 50 mL round bottom flask. The material was heated at 150° C. for 8 days with samples taken at day 1, 2, 3, 6, and 8. The primary breakdown product from the parent molecule that was monitored was the ketone intermediate, C3F7OCF(CF3)CF2OCF(CF3)C(O)CF2CF3. This was monitored using GC-FID.
# as §1, with “5, 7,” for “3, 6,”
# 50 g of the hydrofluoroether was charged to a 50 mL round bottom flask. The material was heated at 150° C. for 7 days with samples taken at days 3, 5, and 7 days. The primary breakdown products from the parent molecule that were monitored was vinyl ether, C4F9OCF(CF3)CF2OCF═CF2 and the hydride C4F9OCF(CF3)CF2OCFHCF3. These were monitored using GC-FID.
# 50 g of the hydrofluoroether was charged to a 50 mL round bottom flask. […] The primary breakdown products from the parent molecule that were monitored was vinyl ether, C3F7(OCF(CF3)CF2)2OCF═CF2 and the hydride C3F7(OCF(CF3)CF2)2OCF═HCF3. These were monitored using GC-FID.
# [2] = type: physicochemical; details: for breakdown product diketone (CF3)2CFCOC2F4COCF(CF3)2: other studies; for appearance of the metal parts of the chiller: over the lifetime of the test; for changes in the composition of the circulating fluid (NMR, GC/MS): circulated through closed stainless steel loop at 150° C. for 28 days
# Experimental: The long term stability of HC6F12CH2OCF2CFHCF3 in a commercial chiller unit was tested. The chiller used for this test was a Lydall Affinity Chiller, model PWL-003 KBE48CBC3 with an operating range of 10° C. to 200° C. HC6F12CH2OCF2CFHCF3 was circulated through a closed stainless steel loop at 150° C. for 28 days. During this time the chiller operated continuously except for short periods for taking samples in which the fluid was cooled to room temperature before the sample was removed. […] The composition of the circulating fluid was analyzed by GC/MS periodically (on days 1, 3, 6, 13, 20, and 28) to determine whether any changes in the fluid had occurred. Fluorine NMR analysis of the fluid before the testing and after completion of the testing was also carried out. […] A very small level of HF (1.4 ppm) was observed initially and this value decreased to 0 ppm by day 13. HF was also monitored in the liquid phase by titration and never exceeded a value of 0.52 ppm.
# A comparative hydrofluoroether 2,3,3,4,4-pentafluoro-2,5-bis(perfluoropropan-2-yl)-5-ethoxytetrahydrofuran (II) was also tested multiple times in this same system under the same conditions. The composition of this fluid was monitored periodically over about thirty days for composition changes from the input material. […] HF was also monitored in the liquid phase by titration and ranged between 0.34 and 0.36 ppm. […] Depending on the study this corrosion varied between quite marked with the formation of black or greenish deposits to less obvious but still showing significant signs of a corrosive agent derived from the fluid. This corrosion as well as the formation of the diketone breakdown product rendered this material unacceptable for use in such a high temperature heat transfer application.
# Furthermore, the heat transfer fluid that includes the hydrofluoroether compound from Example 1 was tested for long term stability in a commercial chiller unit as described in Example 3. […] As a comparison, the compound from Comparative Example 1 was put through the same test.
compound,measurement,setting,value
"CCOC1(C(F)(C(F)(F)F)C(F)(F)F)OC(F)(C(F)(C(F)(F)F)C(F)(F)F)C(F)(F)C1(F)F (centres unmarked) [Comparative Example 1, 2,3,3,4,4-pentafluoro-2,5-bis(perfluoropropan-2-yl)-5-ethoxytetrahydrofuran]",ppm F (HF levels in the liquid phase),"[1]; 150° C., Day 0",<0.1 ppm
same,ppm F (HF levels in the liquid phase),"[1]; 150° C., Day 1",1.0 ppm
same,ppm F (HF levels in the liquid phase),"[1]; 150° C., Day 2",1.8 ppm
same,ppm F (HF levels in the liquid phase),"[1]; 150° C., Day 3",2.6 ppm
same,ppm F (HF levels in the liquid phase),"[1]; 150° C., Day 4",3.2 ppm
same,ppm F (HF levels in the liquid phase),"[1]; 150° C., Day 7",3.9 ppm
same,pH (pH paper),"[1]; 150° C., after one day, remained at that level the remainder of the test",5
same,HF level in the headspace (PortaSens probe),"[1]; 150° C., day 3, maximum level which the probe could detect, did not change for remainder of test",27 ppm
same,decomposition product diketone (CF3)2CFCOC2F4COCF(CF3)2 level,"[1]; 150° C., day 7",1648 ppm
same,pH (pH paper),"[1]; initial value, before heating",7
same,stability of the parent molecule (conclusion from diketone formation),[2],not stable
same,breakdown product diketone (CF3)2CFCOC2F4COCF(CF3)2,"[2]; 150° C., at 7 days",472 ppm
same,breakdown product diketone (CF3)2CFCOC2F4COCF(CF3)2,"[2]; 150° C., at 28 days",195 ppm
same,appearance of the metal parts of the chiller,[2]; 150° C.,considerable corrosion
same,appearance of the metal parts of the chiller,"[2]; 150° C., listed as II",noticeable corrosion
"CCOC(F)(C(F)(F)C(F)(F)F)C(F)(OC(F)(F)C(F)(OC(F)(F)C(F)(F)C(F)(F)F)C(F)(F)F)C(F)(F)F (centres unmarked) [Comparative Example 2, 3-ethoxy-1,1,1,2,2,3,4,5,5,5-decafluoro-4-(1,1,2,3,3,3-hexafluoro-2-heptafluoropropyloxypropoxy)pentane]","ppm Ketone (breakdown product C3F7OCF(CF3)CF2OCF(CF3)C(O)CF2CF3, GC-FID)","[1]; 150° C., Day 1",140 ppm
same,"ppm Ketone (breakdown product C3F7OCF(CF3)CF2OCF(CF3)C(O)CF2CF3, GC-FID)","[1]; 150° C., Day 2",300 ppm
same,"ppm Ketone (breakdown product C3F7OCF(CF3)CF2OCF(CF3)C(O)CF2CF3, GC-FID)","[1]; 150° C., Day 3",503 ppm
same,"ppm Ketone (breakdown product C3F7OCF(CF3)CF2OCF(CF3)C(O)CF2CF3, GC-FID)","[1]; 150° C., Day 6",1000 ppm
same,"ppm Ketone (breakdown product C3F7OCF(CF3)CF2OCF(CF3)C(O)CF2CF3, GC-FID)","[1]; 150° C., Day 8",1200 ppm
same,stability of the HFE to temperature (conclusion from ketone concentration),[1],not exceptionally stable
"COC(F)(C(F)(F)C(F)(F)F)C(F)(OC(F)(F)C(F)(OC(F)(F)C(F)(F)C(F)(F)F)C(F)(F)F)C(F)(F)F (centres unmarked) [Comparative Example 3, 3-methoxy-1,1,1,2,2,3,4,5,5,5-decafluoro-4-(1,1,2,3,3,3-hexafluoro-2-heptafluoropropyloxypropoxy)pentane]","ppm Ketone (breakdown product C3F7OCF(CF3)CF2OCF(CF3)C(O)CF2CF3, GC-FID)","[1]; 150° C., Day 1",50 ppm
same,"ppm Ketone (breakdown product C3F7OCF(CF3)CF2OCF(CF3)C(O)CF2CF3, GC-FID)","[1]; 150° C., Day 2",50 ppm
same,"ppm Ketone (breakdown product C3F7OCF(CF3)CF2OCF(CF3)C(O)CF2CF3, GC-FID)","[1]; 150° C., Day 5",50 ppm
same,"ppm Ketone (breakdown product C3F7OCF(CF3)CF2OCF(CF3)C(O)CF2CF3, GC-FID)","[1]; 150° C., Day 7",50 ppm
same,stability of the HFE to temperature (conclusion from ketone concentration),[1],not exceptionally stable
"CCOC(F)(F)C(F)(OC(F)(F)C(F)(OC(F)(F)C(F)(F)C(F)(F)C(F)(F)F)C(F)(F)F)C(F)(F)F (centres unmarked) [Comparative Example 4, 1-(1-{[1-(ethoxydifluoromethyl)-1,2,2,2-tetrafluoroethoxy]-difluoromethyl}-1,2,2,2-tetrafluoroethoxy)-1,1,2,2,3,3,4,4,4-nonafluorobutane]","% Breakdown products (sum of vinyl ether and hydride, GC-FID)","[1]; 150° C., Day 0",0%
same,"% Breakdown products (sum of vinyl ether and hydride, GC-FID)","[1]; 150° C., Day 3",0.18%
same,"% Breakdown products (sum of vinyl ether and hydride, GC-FID)","[1]; 150° C., Day 5",0.32%
same,"% Breakdown products (sum of vinyl ether and hydride, GC-FID)","[1]; 150° C., Day 7",0.49%
"CCOC(F)(F)C(F)(OC(F)(F)C(F)(OC(F)(F)C(F)(OC(F)(F)C(F)(F)C(F)(F)F)C(F)(F)F)C(F)(F)F)C(F)(F)F (centres unmarked) [Comparative Example 5, 1-{1-[(1-{[1-(ethoxydifluoromethyl)-1,2,2,2-tetrafluoroethoxy]difluoro-methyl}-1,2,2,2-tetrafluoroethoxy)difluoromethyl]-1,2,2,2-tetrafluoroethoxy}-1,1,2,2,3,3,3-heptafluoro-propane]","% Breakdown products (sum of vinyl ether and hydride, GC-FID)","[1]; 150° C., Day 0",0%
same,"% Breakdown products (sum of vinyl ether and hydride, GC-FID)","[1]; 150° C., Day 2.75",0.18%
same,"% Breakdown products (sum of vinyl ether and hydride, GC-FID)","[1]; 150° C., Day 4.75",0.38%
same,"% Breakdown products (sum of vinyl ether and hydride, GC-FID)","[1]; 150° C., Day 6.75",0.45%
same,"% Breakdown products (sum of vinyl ether and hydride, GC-FID)","[1]; 150° C., Day 9.75",0.55%
same,"% Breakdown products (sum of vinyl ether and hydride, GC-FID)","[1]; 150° C., Day 18.75",1.59%
"FC(C(F)(F)F)C(F)(F)OCC(F)(F)C(F)(F)C(F)(F)C(F)(F)C(F)(F)C(F)F (centres unmarked) [Example 1, 7-(1,1,2,3,3,3-hexafluoropropoxy)-1,1,2,2,3,3,4,4,5,5,6,6-dodecafluoroheptane]","changes in product purity / breakdown products of the parent molecule (GC/MS, GC-FID)","[1]; PYREX glass flask, reflux condenser, under nitrogen, 150° C. for 36 days",No changes in product purity were observed
same,breakdown products,"[1]; after 36 days at 150° C., heated to 180° C. for an additional 14 days",No breakdown products were observed
same,HF in head space of the flask (PortaSens HF gas detector probe),"[1]; entire 50 day heating period (150° C. 36 days, 180° C. 14 days)",detected no HF
same,HF level in head space of the chiller,"[2]; 150° C., by day 13",0 ppm
same,increase in HF levels in head space of the chiller (PortaSens HF gas detector probe),"[2]; 150° C., entire 28 day heating period",detected no increase in the HF levels
same,HF level in head space of the chiller,"[2]; 150° C., observed initially",1.4 ppm
same,HF in the liquid phase by titration,"[2]; 150° C., over the chiller test (about 28-30 days)",≤ 0.52 ppm
same,appearance of the metal parts of the chiller,[2]; 150° C.,essentially unchanged
same,"changes in the composition of the circulating fluid (NMR, GC/MS)",[2],no significant deterioration
same,"changes in the composition of the circulating fluid (NMR, GC/MS)",[2]; listed as HC6F12CH2OCF2CFHCF3,No changes in the composition of the fluid were observed
"FC(OC(F)(F)F)C(F)(F)OCC(F)(F)C(F)(F)C(F)(F)C(F)(F)C(F)(F)C(F)F (centres unmarked) [Example 2, 1,1,2,2,3,3,4,4,5,5,6,6-dodecafluoro-7-(1,1,2-trifluoro-2-trifluoromethoxyethoxy)heptane]","changes in product purity (gas chromatography, GC/MS)","[1]; flask, reflux condenser, under nitrogen, 175° C. for 15 days",No changes in product purity were observed
